Data as given in patent publication US5219741A, “Method of making L-proline using an N-acyl-L-protine acylase” (priority 1990, dated 1993).
Where “and” joins values, the source holds several entries; their conditions need not be identical. Equal values may be shown once. Entries after “also recorded” stand apart in the source; their conditions may differ. Where a name gives a salt, the structure may show the parent alone. Read-outs that look alike come from different tables or passages of the source. Where a SMILES comes first, the peptide text is derived from it. The star is where a group is joined. Cbz = O=C(OCc1ccccc1)*

Experiments:
[1] = system: N-acyl-L-proline acylase; test: Substrate specificity: hydrolysis of N-acyl amino acids and proline derivatives; format: biochemical, Comamonas testosteroni DSM 5416; settings: for Rel. activity (%) / Relative Activity (%): N-acetyl-L-proline = 100%; for Relative Activity (%): proline derivatives
Method: The activity of acylase was determined with various N-acetyl-L-amino acids and N-chloroacetyl-L-amino acids in a reaction batch with the following composition:
The reaction temperature was 30° C. and the incubation time 15 minutes to 24 hours. 0.2 ml samples of the reaction batch in each instance were mixed at different times with 0.2 ml 10% (w/v) trichloroacetic acid and the denatured protein centrifuged off for 10 minutes at 11,000 rpms in a table centrifuge. The supernatant was diluted with a 0.1M Na citrate buffer pH 2.2 with 25% (v/v) 2.2-thiodiethanol and 0.1% (v/v) phenol 1:5 and 1:50 respectively. The amino acids released were quantitatively detected by an amino-acid analyzer LC 5001 of the firm Biotronic, Maintal, Federal Republic of Germany. In Table 16, the substrates marked with * and the corresponding products were quantified by means of HPLC.
The activity of the acylase was determined with various proline derivatives as under a).

[2] = system: N-acyl-L-proline acylase; format: biochemical, Comamonas testosteroni DSM 5416
Method: The enzymatic reaction was interrupted by pipetting 50 μl of the enzyme sample into 1.25 ml 100% acetic acid. Subsequently, 0.45 ml 0.1M tris-HCl buffer pH 7.0 and 1.25 ml ninhydrin reagent (3 g ninhydrin dissolved by heating in a mixture of 60 ml 100% acetic acid and 40 ml 6M phosphoric acid) were added. The ninhydrin reagent was freshly prepared daily. The test tubes were loosely closed with screw-on caps, incubated 30 minutes at 100° C. and subsequently cooled down in an ice bath.
The L-proline, liberated by the enzymatic hydrolysis, forms a red dye with ninhydrin at 100° C. The absorption of the red dye was measured in a spectrophotometer at 480 nm relative to a control batch without crude extract (=substrate blank). The concentration of the L-proline produced was determined using a straight calibration line with L-proline in a range of 5 to 100 nmoles per 50 μl specimen. The enzyme activity was indicated in international units; thus, one unit (U) corresponded to an amount of 1 μmole L-proline produced per minute.
The influence of various chemical agents as well as metal cations and anions on the reaction speed of the hydrolytic splitting of N-acetyl-L-proline was determined at 30° C. in a reaction batch with the following composition: […]
The enzyme was pre-incubated for 10 minutes at 30° C. with the compound before the addition of substrate to start the reaction.
The enzyme was pre-incubated for 10 minutes at 30° C. with the agent before the substrate was added to start the reaction.
The enzyme was pre-incubated 10 minutes at 30° C. with the agent before the substrate was added to start the reaction. The concentration of the anions was 10 mM in each instance.

[3] = 20 mM substrate 1.0 ml in 2.0 ml batch, 30° C., pH 7.0, amino-acid analyzer
[4] = chemical agent 1 mM, 10 min pre-incubation at 30° C., no agent = 100
[5] = chemical agent 10 mM, 10 min pre-incubation at 30° C., no agent = 100
[6] = substrate concentration 50 mM, quantified by HPLC

## O=C(O)[C@@H]1Cc2ccccc2N1C(=O)CCl [ClAc--L-indolin-2-carboxylic acid]
[1]; quantified by HPLC
  Rel. activity (%): 0%

## CCCCC(=O)N1CCC[C@H]1C(=O)O [N-valeryl-L-proline]
[1]
  Hydrolysis by the acylase (in words): hydrolyzes
[1]; 30° C., pH 7.0
  Relative Activity (%): 15%

## O=C(O)CN(CCN(CC(=O)O)CC(=O)O)CC(=O)O [EDTA]
[2]
  Activity (%): 101% and 99%

## O=C(CCl)NC1(C(=O)O)CCCCC1 [ClAc--D,L-1-aminocyclohexanoic acid]
[1]; [3]
  Rel. activity (%): 0%

## O=C([O-])c1cc[c]([Hg][OH])cc1 [4-hydroxymercuribenzoate]
[2]; [4]
  Activity (%): 88%
[2]; [5]
  Activity (%): 41%
[2]; native enzyme
  Influence on the acylase activity (in words): inhibiting action; also recorded: significantly inhibit

## O[C@H](CS)[C@H](O)CS (racemic) [Dithiothreitol]
[2]; [4]
  Activity (%): 129%
[2]; [5]
  Activity (%): 48%

## O=C(O)O [Na2 CO3]
[2]
  Activity (%): 75%
  Influence on the acylase activity (in words): slightly inhibited

## O=C([O-])c1cc[c]([Hg][Cl])cc1 [4-chloromercuribenzoate]
[2]; [4]
  Activity (%): 85%
[2]; [5]
  Activity (%): 48%
[2]; native enzyme
  Influence on the acylase activity (in words): inhibiting action; also recorded: significantly inhibit

## O=P([O-])(O)O.[Na+] [NaH2 PO4]
[2]
  Inhibiting mechanism: non-competitive
[2]; anion 10 mM, no agent = 100
  Activity (%): 6%
[2]; native enzyme, listed as PO4^3-
  Influence on the acylase activity (in words): inhibiting action
[2]; native enzyme, listed as Phosphate
  Influence on the acylase activity (in words): inhibited
[2]; native enzyme, listed as phosphate
  Influence on the acylase activity (in words): sharply inhibited

## C[C@H](NC(=O)[C@@H]1CCCN1C(=O)OCc1ccccc1)C(=O)O [Z--L--Pro--L--Ala--OH] (Cbz-Pro-Ala-OH)
[1]; 30° C., pH 7.0
  Relative Activity (%): 0%

## COC(=O)[C@@H]1CCCN1C(C)=O [N-acetyl-L-proline methyl ester]
[1]
  Hydrolysis by the acylase (in words): not hydrolyzed
[1]; 30° C., pH 7.0
  Relative Activity (%): 0%

## CC(=O)N1CCC[C@H]1C(N)=O [N-acetyl-L-prolineamide]
[1]
  Hydrolysis by the acylase (in words): not hydrolyzed
[1]; 30° C., pH 7.0
  Relative Activity (%): 0%

## O=C(O)CC(O)(CC(=O)O)C(=O)O [Na citrate]
[2]; [4]
  Activity (%): 102%
[2]; [5]
  Activity (%): 102%

## O=C(O)[C@@H]1SCCN1C(=O)CCl [N-chloroacetyl-L-thiazolidine-2-carboxylic acid]
[1]
  Hydrolysis by the acylase (in words): hydrolyzes

## N[C@@H](CCC(=O)N[C@@H](CS)C(=O)NCC(=O)O)C(=O)O [Glutathione]
[2]
  Activity (%): 116% and 135%

## CCC(=O)N1CCC[C@H]1C(=O)O [N-propionyl-L-proline]
[1]
  Hydrolysis by the acylase (in words): hydrolyzes
[1]; 30° C., pH 7.0
  Relative Activity (%): 29%

## O=C(O)[C@@H]1CCCCN1C(=O)CCl [N-chloroacetyl-L-pipecolic acid]
[1]
  Hydrolysis by the acylase (in words): hydrolyzes

## CCCCCC(=O)N1CCC[C@H]1C(=O)O [N-caproyl-L-proline]
[1]
  Hydrolysis by the acylase (in words): hydrolyzes
[1]; 30° C., pH 7.0
  Relative Activity (%): 9%

## NC(=O)CI [Iodoacetamide]
[2]; [4]
  Activity (%): 104%
[2]; [5]
  Activity (%): 101%

## CCCC(=O)N1CCC[C@H]1C(=O)O [N-butyryl-L-proline]
[1]
  Hydrolysis by the acylase (in words): hydrolyzes
[1]; 30° C., pH 7.0
  Relative Activity (%): 14%

## NCC(=O)N1CCC[C@H]1C(=O)O [glycyl-L-proline] (H-Gly-Pro-OH)
[1]
  Hydrolysis by the acylase (in words): hydrolyzes
[1]; 30° C., pH 7.0
  Relative Activity (%): 4%

## O=[N+]([O-])[O-].[K+] [KNO3]
[2]; anion 10 mM, no agent = 100
  Activity (%): 96%

## O=C(O)CNC(=O)[C@@H]1CCCN1 [H--L--Pro--Gly--OH] (H-Pro-Gly-OH)
[1]; 30° C., pH 7.0
  Relative Activity (%): 0%

## c1ccc(-c2ccccn2)nc1 [2,2-bipyridine]
[2]; [4]
  Activity (%): 102%
[2]; [5]
  Activity (%): 66%

## O=C(NCC(=O)N1CCC[C@H]1C(=O)O)OCc1ccccc1 [N-benzyloxycarbonyl-glycyl-L-proline] (Cbz-Gly-Pro-OH)
[1]
  Hydrolysis by the acylase (in words): hydrolyzes
[1]; 30° C., pH 7.0
  Relative Activity (%): 11%

## O=C(O)[C@@H]1CSCN1C(=O)CCl [N-chloroacetyl-L-thiazolidine-4-carboxylic acid]
[1]
  Hydrolysis by the acylase (in words): hydrolyzes; also recorded: hydrolyzed especially well
[1]; [3]
  Rel. activity (%): 462%

## CC(=O)N1CC[C@H]1C(=O)O [Ac--L-azetidine-2-carboxylic acid]
[1]; quantified by HPLC
  Rel. activity (%): 0%

## CC(=O)N[C@H](C(=O)O)C(C)C [Ac--L--Val]
[1]; [3]
  Rel. activity (%): 0.2%

## O=C(O)CI [Iodoacetate]
[2]
  Activity (%): 97% and 77%

## O=S(=O)(F)Cc1ccccc1 [PMSF]
[2]; chemical agent 0.1 mM, 10 min pre-incubation at 30° C.
  Activity (%): 104%
[2]; [4]
  Activity (%): 130%

## O=N[O-].[Na+] [NaNO2]
[2]
  Activity (%): 71%
  Influence on the acylase activity (in words): slightly inhibited

## C[C@H](N)C(=O)N1CCC[C@H]1C(=O)O [H--L Ala--L--Pro--OH] (H-Ala-Pro-OH)
[1]; 30° C., pH 7.0
  Relative Activity (%): 0%

## CC(=O)N[C@@H](CS)C(=O)O [Ac--L--Cys]
[1]; [3]
  Rel. activity (%): 0%

## O=C(O)[C@@H]1CCCN1C(=O)OCc1ccccc1 [Z--L--Pro--OH]
[1]; 30° C., pH 7.0
  Relative Activity (%): 0%

## CC(C)(C)OC(=O)N1CCC[C@H]1C(=O)O [Boc--L--Pro--OH]
[1]; 30° C., pH 7.0
  Relative Activity (%): 0%

## OCCS [2-mercaptoethanol]
[2]; chemical agent 14 mM, 10 min pre-incubation at 30° C.
  Activity (%): 14%
[2]; native enzyme
  Influence on the acylase activity (in words): inhibiting action; also recorded: significantly inhibit

## O=CN1CCC[C@H]1C(=O)O [N-formyl-L-proline]
[1]
  Hydrolysis by the acylase (in words): hydrolyzes
[1]; 30° C., pH 7.0
  Relative Activity (%): 18%

## O=S(=O)([O-])[O-].[Na+].[Na+] [Na2 SO4]
[2]; anion 10 mM, no agent = 100
  Activity (%): 96%

## O=C(O)[C@@H]1CCCN1C(=O)CCl [N-chloroacetyl-L-proline]
[1]
  Hydrolysis by the acylase (in words): hydrolyzes; also recorded: hydrolyzed especially well
  Hydrolysis rate, times more rapid than N-acetyl-L-proline: about 3.6 times
[1]; [3]
  Rel. activity (%): 362%
[1]; 30° C., pH 7.0
  Relative Activity (%): 362%

## [Cl-].[Na+] [NaCl]
[2]
  Activity (%): 99%

## NC(=O)[C@@H]1CCCN1C(=O)OCc1ccccc1 [Z--L--Pro--NH2]
[1]; 30° C., pH 7.0
  Relative Activity (%): 0%

## NC(=O)[C@@H]1CCCN1 [H--L--Pro--NH2]
[1]; 30° C., pH 7.0
  Relative Activity (%): 0%

## CC[C@H](C)[C@H](NC(=O)CCl)C(=O)O [ClAc--L--Ile]
[1]; [3]
  Rel. activity (%): 0.5%

## O=C(O)C1CCCCN1C(=O)CCl (racemic) [ClAc--D,L-pipecolic acid, N-chloroacetyl-D,L-pipecolic acid]
[1]
  Hydrolysis by the acylase (in words): reacted at a distinctly lower speed
[1]; [6]
  Rel. activity (%): 16%

## O=C(O)C1SCCN1C(=O)CCl (racemic) [ClAc--D,L-thiazolidine-2-carboxylic acid, N-chloroacetyl-DL-thiazolidine-2-carboxylic acid]
[1]
  Hydrolysis by the acylase (in words): hydrolyzed especially well
[1]; [6]
  Rel. activity (%): 202%

## NNC(N)=O [Semicarbazide]
[2]; [4]
  Activity (%): 109%
[2]; [5]
  Activity (%): 95%

## CC(=O)N[C@@H](C)C(=O)N1CCC[C@H]1C(=O)O [Ac--L--Ala--L--Pro--OH] (Ac-Ala-Pro-OH)
[1]; 30° C., pH 7.0
  Relative Activity (%): 0%

## CC(=O)N1CC(O)C[C@H]1C(=O)O (stereo partly drawn) [N-acetyl-L-4-hydroxyproline]
[1]
  Hydrolysis by the acylase (in words): hydrolyzes
[1]; 30° C., pH 7.0
  Relative Activity (%): 10%
